Laboratory results reported in US10842779B2, “Heterocyclic compounds and their use in preventing or treating bacterial infections” (priority 2015, dated 2020).
Read-outs that look alike come from different tables or passages of the source.

Columns and labels:
Format in all cases: cell-based
K. oxytoca [1] = experiment: Synergy with ceftazidime: MIC of ceftazidime at fixed concentration of compound; details: Klebsiella oxytoca, read-out: MIC of CAZ + compound (4 μg/mL)
Protocol: (§1) Method 2: MIC of Compounds and Synergy with Ceftazidime Against Bacterial Isolates (Table 2 and 3)
(§2) Compounds of the present invention were assessed against genotyped bacterial strains alone or in combination with the β-lactam ceftazidime. In the assays, MICs of said compounds, or of ceftazidime at fixed concentrations of said compounds were determined by the broth microdilution method according to the Clinical Laboratory Standards Institute (CLSI—M7-A7). Briefly, compounds alone according to the invention were prepared in DMSO and spotted (2 μL each) on sterile polystyrene plates (Corning, 3788). Compounds and ceftazidime dilutions were prepared in DMSO and spotted (1 μL each) on sterile polystyrene plates (Corning, 3788). Log phase bacterial suspensions were adjusted to a final density of 5×10^5 cfu/mL in cation-adjusted Mueller-Hinton broth (Beckton-Dickinson) and added to each well (98 μL). Microplates were incubated for 16-20 h at 35° C. in ambient air. The MIC of the compounds was defined as the lowest concentration of said compounds that prevented bacterial growth as read by visual inspection. The MIC of ceftazidime at each compound concentration was defined as the lowest concentration of ceftazidime that prevented bacterial growth as read by visual inspection.

C. freundii = experiment: as above; details: Citrobacter freundii; CFR UFR10; beta-lactamases OXA-48; read-out: MIC of CAZ + compound (4 μg/mL)
Protocol: as §1, §2

M. morganii = experiment: as above; details: Morganella morganii, read-out: MIC of CAZ + compound (4 μg/mL)
Protocol: as §1, §2

E. cloacae = experiment: MIC of compounds alone, broth microdilution; details: Enterobacter cloacae
Protocol: as §1, §2

K. oxytoca [2] = experiment: MIC of compounds alone, broth microdilution; details: Klebsiella oxytoca; alone; KOX UFR21; beta-lactamases TEM-1, CTX-M-15 OXA-48; read-out: MIC
Protocol: as §1, §2

S. marcescens = experiment: MIC of compounds alone, broth microdilution; details: Serratia marcescens, SMA UFR30, beta-lactamases OXA-405
Protocol: as §1, §2

E. coli = experiment: MIC of compounds alone, broth microdilution; details: Escherichia coli
Protocol: as §1, §2

In the case of `O=C(O)C(F)(F)F.O=C1N2C[C@H](c3scnc3[C@H]2c2ncc[nH]2)N1OS(=O)(=O)[O-].[Na+]` (relative stereo) [Example 1, Sodium and 2,2,2-trifluoroacetate [trans-7-(1H-imidazol-3-ium-2-yl)-9-oxo-3-thia-5,8,10-triaza-tricyclo[6.2.1.0^2,6]undeca-2(6),4-dien-10-yl]sulfate], the MIC (K. oxytoca [1]) is reported as less than 0.25 µg/mL, the MIC (C. freundii) is reported as less than 0.25 µg/mL and the MIC (M. morganii) is reported as no more than 0.25 µg/mL. It also gave an MIC (E. cloacae; ECL 2185D, beta-lactamases OXA-163, read-out: MIC) of 8 µg/mL, an MIC (E. cloacae; ECL 190310, beta-lactamases AmpC, read-out: MIC) of 4 µg/mL and an MIC (E. cloacae; ECL 190408, beta-lactamases TEM-1, CTX-M-15 OXA-1, read-out: MIC) of 0.5 µg/mL. The MIC (E. cloacae; ECL 200138, beta-lactamases AmpC, read-out: MIC) was 8 µg/mL, the MIC (E. cloacae; ECL 200322, beta-lactamases TEM-1, CTX-M-15 OXA-1, read-out: MIC) was 1 µg/mL and the MIC (E. cloacae; ECL 260033, beta-lactamases AmpC, read-out: MIC) was 8 µg/mL. It also gave an MIC (E. cloacae; ECL 260253, beta-lactamases TEM-1 KPC-3, read-out: MIC) of 8 µg/mL, an MIC (E. cloacae; ECL 260323, beta-lactamases AmpC, read-out: MIC) of 4 µg/mL and an MIC (E. cloacae; ECL 260508, beta-lactamases TEM-1, CTX-M-15, read-out: MIC) of 1 µg/mL. For the same compound, the MIC (E. cloacae; ECL HAN, beta-lactamases OXA-35, read-out: MIC) was 8 µg/mL, the MIC (E. cloacae; ECL NEM146383, beta-lactamases AmpC, read-out: MIC) was 2 µg/mL and the MIC (E. cloacae; ECL P99, beta-lactamases AmpC, read-out: MIC) was 4 µg/mL. For the same compound, the MIC (E. cloacae; ECL UFR12, beta-lactamases CTX-M-9 OXA-48, read-out: MIC) was 2 µg/mL, the MIC (E. cloacae; ECL UFR13, beta-lactamases TEM-1, SHV-12, CTX-M-9 OXA-48, read-out: MIC) was 2 µg/mL and the MIC (E. cloacae; ECL UFR14, beta-lactamases TEM-1, SHV-12, CTX-M-15 DHA-1 OXA-1 OXA-48, read-out: MIC) was 8 µg/mL. The MIC (E. cloacae; ECL UFR38, beta-lactamases CTX-M-15 NDM-1, read-out: MIC) was 1 µg/mL, the MIC (E. cloacae; ECL UFR51, beta-lactamases SHV-12 IMP-8, read-out: MIC) was 0.5 µg/mL and the MIC (E. cloacae; ECL UFR60, beta-lactamases TEM-1, CTX-M-15 KPC-2, read-out: MIC) was 8 µg/mL. The MIC (E. cloacae; ECL UFR70, beta-lactamases TEM-1, CTX-M-15 CMY-2 OXA-1, read-out: MIC) was 1 µg/mL, the MIC (E. cloacae; ECL UFR84, beta-lactamases TEM-1 AmpC OXA-1, read-out: MIC) was 8 µg/mL and the MIC (E. cloacae; ECL UFR85, beta-lactamases TEM-1, CTX-M-15 AmpC, read-out: MIC) was 2 µg/mL. The MIC (K. oxytoca [2]) was 4 µg/mL, the MIC (S. marcescens) was 16 µg/mL and the MIC (E. coli; ECO 180070, beta-lactamases TEM-1, CTX-M-15, read-out: MIC) was 1 µg/mL. It also gave an MIC (E. coli; ECO 190314, beta-lactamases CTX-M-1, read-out: MIC) of 0.5 µg/mL, an MIC (E. coli; ECO 190317, beta-lactamases TEM-1, SHV-12, CTX-M-15 OXA-1, read-out: MIC) of 1 µg/mL and an MIC (E. coli; ECO 190457, beta-lactamases CTX-M-15 OXA-1, read-out: MIC) of 1 µg/mL. It also gave an MIC (E. coli; ECO 190549, beta-lactamases CTX-M-1, read-out: MIC) of 0.25 µg/mL, an MIC (E. coli; ECO 200159, beta-lactamases TEM-1, CTX-M-14, read-out: MIC) of 0.25 µg/mL and an MIC (E. coli; ECO 200259, beta-lactamases CTX-M-14, read-out: MIC) of 0.5 µg/mL. The MIC (E. coli; ECO 200344, beta-lactamases CTX-M-1, read-out: MIC) was 0.5 µg/mL, the MIC (E. coli; ECO 260096, beta-lactamases CTX-M-132, read-out: MIC) was 4 µg/mL and the MIC (E. coli; ECO 260304, beta-lactamases CTX-M-15, read-out: MIC) was 1 µg/mL. For the same compound, the MIC (E. coli; ECO 260508, beta-lactamases TEM-1, CTX-M-15 OXA-1, read-out: MIC) was 2 µg/mL, the MIC (E. coli; ECO UFR16, beta-lactamases TEM-1, CTX-M-15 OXA-1 OXA-48, read-out: MIC) was 2 µg/mL and the MIC (E. coli; ECO UFR17, beta-lactamases TEM-1, CTX-M-15 CMY-2 OXA-1 OXA-181, read-out: MIC) was 4 µg/mL. The MIC (E. coli; ECO UFR18, beta-lactamases CTX-M-15 OXA-204, read-out: MIC) was 1 µg/mL, the MIC (E. coli; ECO UFR19, beta-lactamases CTX-M-15 CMY-2 OXA-1 OXA-204, read-out: MIC) was 1 µg/mL and the MIC (E. coli; ECO UFR32, beta-lactamases TEM-1, VEB-1 OXA-10, read-out: MIC) was 1 µg/mL. It also gave an MIC (E. coli; ECO UFR39, beta-lactamases CTX-M-15 NDM-1, read-out: MIC) of 2 µg/mL, an MIC (E. coli; ECO UFR41, beta-lactamases TEM-1, CTX-M-15 CMY-2 OXA-1 NDM-4, read-out: MIC) of 16 µg/mL and an MIC (E. coli; ECO UFR45, beta-lactamases TEM-1 CMY-4 OXA-1 OXA-48 VIM-1, read-out: MIC) of 0.5 µg/mL. The MIC (E. coli; ECO UFR52, beta-lactamases TEM-1, SHV-12 IMP-8, read-out: MIC) was 1 µg/mL.
